Experimental data from ChEMBL document CHEMBL3045317, “Synthesis of novel analogues on the -carbon of houttuyfonate and SAR analysis of antibacterial activity with MOPAC” (Med Chem Res, 2009).
The source made the active and inactive calls. The rule behind the calls is not given here.

Assays:
Type in all cases: functional, organism-based
[1] = test system: Bacillus subtilis; experiment: Antimicrobial activity against Bacillus subtilis CCRC 10255 after 24 hr by broth microdilution method
[2] = test system: Staphylococcus aureus; experiment: Antimicrobial activity against Staphylococcus aureus ATCC 25923 after 24 hr by broth microdilution method
[3] = test system: Pseudomonas aeruginosa; experiment: Antimicrobial activity against Pseudomonas aeruginosa ATCC 27853 after 24 hr by broth microdilution method
[4] = test system: Salmonella typhi; experiment: Antimicrobial activity against Salmonella enterica subsp. enterica serovar Typhi ATCC 19430 after 24 hr by broth microdilution method
[5] = test system: Proteus mirabilis; experiment: Antimicrobial activity against Proteus mirabilis ATCC 49027 after 24 hr by broth microdilution method
[6] = test system: Shigella dysenteriae; experiment: Antimicrobial activity against Shigella dysenteriae NI-51570 after 24 hr by broth microdilution method
[7] = test system: Escherichia coli; experiment: Antimicrobial activity against Escherichia coli ATCC 25922 after 24 hr by broth microdilution method

Structure (SMILES) | Activity [1] | Activity [2] | Activity [3] | Activity [4] | Activity [5] | Activity [6] | Activity [7]
CCCCCCCCCC(=O)CC=O | Active | Active | – | – | – | – | –
CCCCCCCCCCCC(=O)CC=O | Active | Active | – | – | – | – | –
CCCCCCCC(=O)C(C=O)CC (stereo not drawn) | Active | Active | inactive | inactive | inactive | inactive | inactive
CCCCCCCC(=O)CC=O | Active | Active | – | – | – | – | –
